Assay results: patent publication US20230414578A1, “PHARMACEUTICAL COMPOSITION” (KOWA COMPANY, LTD., priority 2017, published 2023)

Assays:
[1] = Test Example 3: interaction study, visual examination of discoloration; assay type: physicochemical
Protocol: The states (the presence or absence of discoloration) of the samples before the start of storage and after storage at 60°G for 2 weeks were visually examined.

[2] = Test Example 1: storage stability of pemafibrate alone (HPLC related substances); assay type: physicochemical
Protocol: In Test Examples below, measurement was performed through HPLC using an ODS column as a column and an ultraviolet spectrophotometer as a detector. 250 mg of pemafibrate was encapsulated in a polypropylene container (tight container defined in The Japanese Pharmacopoeia, 17th Edition, General Rules), and stored in a dark place at a temperature of 60° C. for 1 month. The amounts of pemafibrate-derived decomposition products (related substances) before the start of storage and after storage at 60° C. for 1 month were evaluated through the following method. The sum of related substance-derived peak areas was evaluated in terms of a ratio (%) to the pemafibrate-derived peak area using an HPLC apparatus, and the ratio was defined as the “Total amount (%) of related substances”.

State, Before storage ([1]; before start of storage): White | State, After storage at 60° C. for 2 weeks ([1]; polypropylene tight container, dark place, 60° C., 2 weeks): White | increase in the amount of related substances (in words) ([2]; after storage at 60° C. for 1 month): no substantive increase | Total amount (%) of related substances, Before storage ([2]; before start of storage, sum of related substance peak areas as ratio to pemafibrate peak area, HPLC): <0.05% | Total amount (%) of related substances, After storage at 60° C. for 1 month ([2]; polypropylene tight container, dark place, 60° C., 1 month, HPLC peak area ratio): <0.05%
Compound: CC[C@@H](Oc1cccc(CN(CCCOc2ccc(OC)cc2)c2nc3ccccc3o2)c1)C(=O)O [Pemafibrate alone, (2R)-2-[3-([1,3-Benzoxazol-2-yl[3-(4-methoxyphenoxy)propyl]amino]methyl)phenoxy]butanoic acid]
